{"source": "patent US20040265357A1", "about": "“Combination of liponic acid and glutamine in food and pharmaceutical products” (priority 2001, published 2004)", "key": {"[1]": {"tested_on": "experimentally induced cerebral ischemia", "conditions": "cited from earlier work"}, "mice 6-8 weeks old": {"tested_on": "mice 6-8 weeks old", "conditions": "mice on vitamin E-deficient diet; 1.65 g/kg of body weight; cited from earlier work"}, "diabetes patients": {"tested_on": "diabetes patients", "conditions": "daily 600 mg for more than 3 months; cited from earlier work"}, "experimental rat model": {"tested_on": "experimental rat model", "conditions": "cited from earlier work; for effectiveness against buthionine sulfoximine-induced cataract: comparison of enantiomers and racemate"}, "aged mice": {"tested_on": "aged mice", "conditions": "cited from earlier work"}, "rats": {"tested_on": "rats", "conditions": "oral administration; cited from earlier work"}, "Human Jurkat T cells": {"tested_on": "Human Jurkat T cells", "assay": "Increase in intracellular glutathione levels, Jurkat T cells (GSH by HPLC)", "assay_type": "cell-based", "method": "(§1) Human Jurkat T cells and U937 cells, a human myelomonocyclic cell line, were used for the experiments. Jurkat and U937 cells were cultivated in RPMI 1640 medium (Bio Whittaker, Belgium)—supplemented with 10% heat-inactivated fetal calf serum (FCS; Linaris, Germany), 1% penicillin/streptomycin (Life Technologies, Scotland) and 2 mM L-glutamine (Sigma, Mont.)—under standard conditions (95% humidity, 5% CO2 and 37° C.). After harvesting, the cells were washed 2× with PBS, resuspended in standard medium (RPMI 1640 with 10% FCS, 1% streptomycin/penicillin, without L-glutamine) in a concentration of 2×10^5 cells/ml and transferred into […] culture bottles. The cells were treated with and without addition of 2 mM glutamine and in each case with or without 100 μM α-lipoic acid over a period of 4, 8, 24 or 48 h. After the respective treatment period had elapsed, the cells were harvested and washed 2× with PBS. 2×10^6 cells were resuspended in sulfosalicylic acid (6.5% in distilled water; Marck, Germany) and incubated on ice for 15 min. The supernatant after pelleting of the cells (5 000 g, 10 min) was aspirated off and stored at −20° C. until glutathione was determined by HPLC."}, "[2]": {"tested_on": "U937 cells, a human myelomonocyclic cell line", "assay": "Increase in intracellular glutathione levels, U937 cells (GSH by HPLC)", "assay_type": "cell-based", "method": "as §1"}, "mice": {"tested_on": "mice", "conditions": "oral administration; cited from earlier work"}, "[3]": {"conditions": "0.05 mM glutamine added to culture medium"}, "[4]": {"conditions": "2 mM glutamine added to culture medium"}}, "note": "Like-named read-outs stand apart in the source and are kept apart here."}
{"molecule": "O=C(O)CCCCC1CCSS1", "note": "(stereo not drawn) [lipoic acid, 5-(1,2-dithiolan-3-yl)valeric acid]", "values": [{"measurement": "infarct size", "setting": "[1]; iv, 25 mg/kg body weight", "result": "reduction in the infarct size"}, {"measurement": "symptoms of vitamin E deficiency phenomena (muscular dystrophy, weight loss)", "setting": "mice 6-8 weeks old", "result": "prevents the symptoms"}, {"measurement": "oxidative stress", "setting": "diabetes patients", "result": "reduction in oxidative stress"}, {"measurement": "cataract induced by buthionine sulfoximine", "setting": "experimental rat model; rat model, subcutaneous injection 25 mg/kg body weight twice", "result": "significant reduction"}, {"measurement": "long-term memory", "setting": "aged mice", "result": "improve the long-term memory"}]}
{"molecule": "O=C(O)CCCCC1CCSS1", "note": "(racemic) [racemic mixture]", "values": [{"measurement": "effectiveness against buthionine sulfoximine-induced cataract", "setting": "experimental rat model", "result": "effective"}]}
{"molecule": "O=C(O)CCCC[C@@H](S)CCS", "note": "(racemic) [dihydrolipoic acid]", "values": [{"measurement": "infarct size", "setting": "[1]; 50 and 100 mg/kg body weight", "result": "reduction in the infarct size"}]}
{"molecule": "O=C(O)CCCC[C@H]1CCSS1", "note": "(single isomer, unassigned) [S enantiomer]", "values": [{"measurement": "effectiveness against buthionine sulfoximine-induced cataract", "setting": "experimental rat model", "result": "effective"}]}
{"molecule": "O=C(O)CCCC[C@@H]1CCSS1", "note": "[(R)-α-lipoic acid, (R)-5-(1,2-dithiolan-3-yl) valeric acid]", "values": [{"measurement": "effectiveness against buthionine sulfoximine-induced cataract", "setting": "experimental rat model", "result": "effective"}, {"measurement": "mitochondrial function", "setting": "rats", "result": "improvement in mitochondrial function"}]}
{"molecule": "NC(=O)CCC(N)C(=O)O", "note": "(stereo not drawn) [glutamine, 2-aminopentanoic acid 5-amide]", "values": [{"measurement": "concentration of reduced glutathione (GSH)", "setting": "Human Jurkat T cells; [3]", "result": "no significant change"}, {"measurement": "concentration of reduced glutathione (GSH)", "setting": "Human Jurkat T cells; [4]", "result": "significant increases"}, {"measurement": "concentration of reduced glutathione (GSH)", "setting": "[2]; [3]", "result": "no significant change"}, {"measurement": "concentration of reduced glutathione (GSH)", "setting": "[2]; [4]", "result": "significant increases"}, {"measurement": "number of lymphocytes in Peyer's patches", "setting": "mice", "result": "increased number of lymphocytes"}]}
